{
  "source": "patent US12343326B2",
  "about": "“Psychoactive medicines and their use for treating psychiatric and neurological conditions and disorders” (Transcend Therapeutics, Inc., priority 2021, dated 2025)",
  "assay_in_all_cases": "β-arrestin based GPCR screen (PathHunter / GPCRmax), agonist mode",
  "assay_type_in_all_cases": "cell-based",
  "parameters_in_all_cases": "host or cells: PathHunter cell lines",
  "key": {"[1]": {"molecular_target": "168 GPCRs (Homo sapiens, UniProt O00574)", "sequence (O00574 whole entry)": "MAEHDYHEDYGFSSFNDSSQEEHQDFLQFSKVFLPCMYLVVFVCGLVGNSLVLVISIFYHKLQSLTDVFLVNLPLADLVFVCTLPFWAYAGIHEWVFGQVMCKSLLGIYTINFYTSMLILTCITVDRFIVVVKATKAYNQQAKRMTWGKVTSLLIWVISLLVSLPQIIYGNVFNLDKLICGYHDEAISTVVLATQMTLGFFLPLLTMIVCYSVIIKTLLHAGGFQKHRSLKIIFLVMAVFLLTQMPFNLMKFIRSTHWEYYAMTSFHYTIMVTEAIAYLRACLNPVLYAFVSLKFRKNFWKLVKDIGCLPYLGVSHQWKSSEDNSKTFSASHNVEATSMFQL", "description": "(§1) For agonist determination, cells were incubated with sample to induce response. […] Vehicle concentration was 1%."}, "[2]": {"molecular_target": "168 GPCRs (Homo sapiens, UniProt P41143)", "sequence (P41143 whole entry)": "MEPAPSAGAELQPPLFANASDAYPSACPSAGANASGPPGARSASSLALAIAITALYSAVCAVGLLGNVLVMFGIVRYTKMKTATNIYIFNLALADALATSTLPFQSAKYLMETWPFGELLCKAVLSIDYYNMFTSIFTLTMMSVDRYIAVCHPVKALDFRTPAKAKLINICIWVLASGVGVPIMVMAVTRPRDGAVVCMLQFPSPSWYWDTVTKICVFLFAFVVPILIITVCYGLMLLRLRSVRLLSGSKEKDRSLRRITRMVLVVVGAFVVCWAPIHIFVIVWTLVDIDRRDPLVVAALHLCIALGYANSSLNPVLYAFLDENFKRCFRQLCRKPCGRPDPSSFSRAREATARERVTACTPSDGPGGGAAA", "description": "as §1"}, "[3]": {"molecular_target": "168 GPCRs (Homo sapiens, UniProt P21453)", "sequence (P21453 whole entry)": "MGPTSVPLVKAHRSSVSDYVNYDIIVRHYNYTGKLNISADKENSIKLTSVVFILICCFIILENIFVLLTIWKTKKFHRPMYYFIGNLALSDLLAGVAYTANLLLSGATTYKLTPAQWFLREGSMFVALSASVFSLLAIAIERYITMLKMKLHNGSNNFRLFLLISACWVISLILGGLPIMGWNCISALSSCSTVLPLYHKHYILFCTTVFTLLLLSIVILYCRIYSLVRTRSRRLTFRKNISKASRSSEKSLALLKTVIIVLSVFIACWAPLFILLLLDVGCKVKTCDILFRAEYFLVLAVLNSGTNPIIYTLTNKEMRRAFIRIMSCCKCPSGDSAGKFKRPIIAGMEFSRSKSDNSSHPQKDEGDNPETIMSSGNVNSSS", "description": "as §1"}, "[4]": {"molecular_target": "168 GPCRs (Homo sapiens, UniProt P48039)", "sequence (P48039 whole entry)": "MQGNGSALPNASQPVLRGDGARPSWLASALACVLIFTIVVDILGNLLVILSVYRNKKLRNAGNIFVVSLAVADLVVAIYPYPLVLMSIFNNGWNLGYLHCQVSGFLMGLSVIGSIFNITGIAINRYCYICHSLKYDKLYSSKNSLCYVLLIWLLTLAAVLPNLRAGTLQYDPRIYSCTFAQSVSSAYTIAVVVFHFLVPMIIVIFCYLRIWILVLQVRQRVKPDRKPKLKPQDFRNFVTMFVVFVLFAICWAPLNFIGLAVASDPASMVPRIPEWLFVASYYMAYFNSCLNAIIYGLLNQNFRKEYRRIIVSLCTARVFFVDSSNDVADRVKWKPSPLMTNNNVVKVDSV", "settings": "MTNR1A", "description": "as §1"}, "[5]": {"molecular_target": "168 GPCRs (Homo sapiens, UniProt P21554)", "description": "as §1"}, "[6]": {"molecular_target": "168 GPCRs (Homo sapiens, UniProt P30411)", "settings": "BDKRB2; Agonist; 1 uM", "description": "as §1"}, "[7]": {"molecular_target": "168 GPCRs (Homo sapiens, UniProt Q9Y5N1)", "sequence (Q9Y5N1 whole entry)": "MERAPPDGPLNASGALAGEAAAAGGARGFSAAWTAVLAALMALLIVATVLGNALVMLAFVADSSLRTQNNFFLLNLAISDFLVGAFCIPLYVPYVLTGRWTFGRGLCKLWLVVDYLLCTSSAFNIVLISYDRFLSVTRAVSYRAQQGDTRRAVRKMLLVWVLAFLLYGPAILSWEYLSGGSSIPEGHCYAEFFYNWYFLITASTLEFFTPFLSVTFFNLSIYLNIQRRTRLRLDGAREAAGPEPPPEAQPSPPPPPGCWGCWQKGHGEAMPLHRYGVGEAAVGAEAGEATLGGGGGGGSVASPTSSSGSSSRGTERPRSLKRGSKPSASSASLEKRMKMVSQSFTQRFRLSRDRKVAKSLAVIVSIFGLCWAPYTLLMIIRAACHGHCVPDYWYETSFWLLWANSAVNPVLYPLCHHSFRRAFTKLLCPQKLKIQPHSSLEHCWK", "description": "as §1"}, "[8]": {"molecular_target": "T1, 168 GPCRs (Homo sapiens, UniProt P08173)", "T1 sequence (P08173 1-479)": "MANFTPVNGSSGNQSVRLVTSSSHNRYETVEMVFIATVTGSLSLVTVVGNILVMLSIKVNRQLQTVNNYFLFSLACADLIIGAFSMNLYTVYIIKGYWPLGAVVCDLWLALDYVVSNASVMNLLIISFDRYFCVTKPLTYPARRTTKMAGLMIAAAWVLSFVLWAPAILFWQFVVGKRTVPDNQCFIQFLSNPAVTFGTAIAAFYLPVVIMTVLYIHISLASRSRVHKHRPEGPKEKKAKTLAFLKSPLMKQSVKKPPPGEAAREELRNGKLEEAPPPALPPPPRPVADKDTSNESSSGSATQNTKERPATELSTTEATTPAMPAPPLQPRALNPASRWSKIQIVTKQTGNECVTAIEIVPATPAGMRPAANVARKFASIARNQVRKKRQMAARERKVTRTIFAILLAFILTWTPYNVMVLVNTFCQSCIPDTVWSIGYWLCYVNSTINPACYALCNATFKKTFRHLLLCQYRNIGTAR", "settings": "CHRM4, Agonist", "description": "as §1"}, "[9]": {"molecular_target": "168 GPCRs (Homo sapiens, UniProt P25101)", "sequence (P25101 21-427)": "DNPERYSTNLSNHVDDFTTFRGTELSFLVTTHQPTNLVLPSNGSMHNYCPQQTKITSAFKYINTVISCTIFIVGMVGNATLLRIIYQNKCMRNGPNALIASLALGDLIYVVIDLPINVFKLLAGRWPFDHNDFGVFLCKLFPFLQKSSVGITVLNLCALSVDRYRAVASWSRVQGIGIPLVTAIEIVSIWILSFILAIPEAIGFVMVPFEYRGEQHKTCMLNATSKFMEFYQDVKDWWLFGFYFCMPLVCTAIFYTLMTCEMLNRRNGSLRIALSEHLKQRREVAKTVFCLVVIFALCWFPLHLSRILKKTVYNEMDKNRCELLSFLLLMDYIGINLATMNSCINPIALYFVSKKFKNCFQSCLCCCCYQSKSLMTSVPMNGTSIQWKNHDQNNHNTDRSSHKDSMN", "settings": "EDNRA", "description": "as §1"}, "[10]": {"molecular_target": "T2, 168 GPCRs (Homo sapiens, UniProt P32247)", "T2 sequence (P32247 1-399)": "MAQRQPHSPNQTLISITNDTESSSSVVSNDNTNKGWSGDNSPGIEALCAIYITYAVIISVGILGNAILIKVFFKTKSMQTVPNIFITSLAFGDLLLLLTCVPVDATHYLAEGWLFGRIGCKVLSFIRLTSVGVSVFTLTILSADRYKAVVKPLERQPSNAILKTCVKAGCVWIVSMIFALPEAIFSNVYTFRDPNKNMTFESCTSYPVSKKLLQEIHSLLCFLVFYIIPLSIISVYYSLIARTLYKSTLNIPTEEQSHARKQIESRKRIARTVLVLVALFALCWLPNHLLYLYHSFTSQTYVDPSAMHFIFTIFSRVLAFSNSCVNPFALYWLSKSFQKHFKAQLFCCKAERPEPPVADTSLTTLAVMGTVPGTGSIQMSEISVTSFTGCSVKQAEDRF", "settings": "BRS3, Agonist", "description": "as §1"}, "[11]": {"molecular_target": "168 GPCRs (Homo sapiens, UniProt P28566)", "sequence (P28566 whole entry)": "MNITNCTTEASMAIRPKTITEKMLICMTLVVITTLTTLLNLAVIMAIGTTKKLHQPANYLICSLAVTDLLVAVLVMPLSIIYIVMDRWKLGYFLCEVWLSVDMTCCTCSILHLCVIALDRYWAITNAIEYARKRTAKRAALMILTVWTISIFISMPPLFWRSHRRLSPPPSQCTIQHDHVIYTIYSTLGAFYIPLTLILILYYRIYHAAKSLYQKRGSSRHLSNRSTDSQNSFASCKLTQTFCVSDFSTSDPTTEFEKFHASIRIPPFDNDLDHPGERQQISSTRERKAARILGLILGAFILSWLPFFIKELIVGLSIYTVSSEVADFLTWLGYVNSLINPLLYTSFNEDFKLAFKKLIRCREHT", "settings": "HTR1E", "description": "as §1"}, "[12]": {"molecular_target": "168 GPCRs (Homo sapiens, UniProt P49190)", "sequence (P49190 25-550)": "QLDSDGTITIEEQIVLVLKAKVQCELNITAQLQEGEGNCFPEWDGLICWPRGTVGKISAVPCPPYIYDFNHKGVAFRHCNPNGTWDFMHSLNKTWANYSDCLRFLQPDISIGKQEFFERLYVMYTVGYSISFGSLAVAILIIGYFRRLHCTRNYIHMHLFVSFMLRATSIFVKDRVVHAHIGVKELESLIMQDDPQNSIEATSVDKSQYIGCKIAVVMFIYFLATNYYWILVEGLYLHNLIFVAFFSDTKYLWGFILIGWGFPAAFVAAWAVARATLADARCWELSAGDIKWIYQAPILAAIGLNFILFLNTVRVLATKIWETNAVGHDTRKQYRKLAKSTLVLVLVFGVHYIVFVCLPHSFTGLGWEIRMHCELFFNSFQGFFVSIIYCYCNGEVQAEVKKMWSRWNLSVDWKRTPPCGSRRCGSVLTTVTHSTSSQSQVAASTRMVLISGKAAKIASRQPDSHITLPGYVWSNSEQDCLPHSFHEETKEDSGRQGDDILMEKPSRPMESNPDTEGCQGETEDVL", "description": "as §1"}, "[13]": {"molecular_target": "168 GPCRs (Homo sapiens, UniProt Q9UBY5)", "sequence (Q9UBY5 whole entry)": "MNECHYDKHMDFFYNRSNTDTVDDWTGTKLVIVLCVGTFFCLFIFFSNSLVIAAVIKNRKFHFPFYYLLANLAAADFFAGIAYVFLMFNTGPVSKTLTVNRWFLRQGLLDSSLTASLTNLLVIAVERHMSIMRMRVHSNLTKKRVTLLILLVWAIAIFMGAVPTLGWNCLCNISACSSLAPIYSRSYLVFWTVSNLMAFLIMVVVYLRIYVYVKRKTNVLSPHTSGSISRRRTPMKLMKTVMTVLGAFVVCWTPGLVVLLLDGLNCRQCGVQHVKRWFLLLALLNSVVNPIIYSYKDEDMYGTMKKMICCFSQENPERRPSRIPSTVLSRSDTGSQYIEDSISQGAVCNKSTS", "description": "as §1"}, "[14]": {"molecular_target": "168 GPCRs (Homo sapiens, UniProt P55085)", "sequence (P55085 26-397)": "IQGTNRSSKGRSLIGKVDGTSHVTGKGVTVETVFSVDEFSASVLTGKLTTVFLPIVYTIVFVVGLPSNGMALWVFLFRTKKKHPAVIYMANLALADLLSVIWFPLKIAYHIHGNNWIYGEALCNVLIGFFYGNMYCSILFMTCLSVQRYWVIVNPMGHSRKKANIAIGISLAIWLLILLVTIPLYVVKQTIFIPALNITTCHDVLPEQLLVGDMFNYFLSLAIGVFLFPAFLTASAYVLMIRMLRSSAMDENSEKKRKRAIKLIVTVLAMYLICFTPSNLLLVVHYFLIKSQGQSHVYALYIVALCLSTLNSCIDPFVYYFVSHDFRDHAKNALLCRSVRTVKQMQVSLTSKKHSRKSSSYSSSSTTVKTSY", "description": "as §1"}, "[15]": {"molecular_target": "168 GPCRs (Homo sapiens, UniProt P43220)", "sequence (P43220 24-463)": "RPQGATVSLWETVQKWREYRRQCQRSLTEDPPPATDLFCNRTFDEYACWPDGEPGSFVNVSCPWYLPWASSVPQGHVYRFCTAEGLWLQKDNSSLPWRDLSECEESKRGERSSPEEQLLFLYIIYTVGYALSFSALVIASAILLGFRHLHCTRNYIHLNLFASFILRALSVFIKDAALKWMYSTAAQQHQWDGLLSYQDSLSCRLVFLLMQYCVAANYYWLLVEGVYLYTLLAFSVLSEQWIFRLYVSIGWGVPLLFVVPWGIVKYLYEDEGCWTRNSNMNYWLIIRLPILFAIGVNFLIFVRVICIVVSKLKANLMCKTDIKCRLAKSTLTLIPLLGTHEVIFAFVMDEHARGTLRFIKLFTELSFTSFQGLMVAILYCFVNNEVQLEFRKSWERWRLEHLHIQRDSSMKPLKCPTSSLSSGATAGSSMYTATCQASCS", "settings": "GLP1R", "description": "as §1"}, "[16]": {"molecular_target": "168 GPCRs (Homo sapiens, UniProt P25929)", "settings": "NPY1R", "description": "as §1"}, "[17]": {"molecular_target": "168 GPCRs (Homo sapiens, UniProt Q16581)", "sequence (Q16581 whole entry)": "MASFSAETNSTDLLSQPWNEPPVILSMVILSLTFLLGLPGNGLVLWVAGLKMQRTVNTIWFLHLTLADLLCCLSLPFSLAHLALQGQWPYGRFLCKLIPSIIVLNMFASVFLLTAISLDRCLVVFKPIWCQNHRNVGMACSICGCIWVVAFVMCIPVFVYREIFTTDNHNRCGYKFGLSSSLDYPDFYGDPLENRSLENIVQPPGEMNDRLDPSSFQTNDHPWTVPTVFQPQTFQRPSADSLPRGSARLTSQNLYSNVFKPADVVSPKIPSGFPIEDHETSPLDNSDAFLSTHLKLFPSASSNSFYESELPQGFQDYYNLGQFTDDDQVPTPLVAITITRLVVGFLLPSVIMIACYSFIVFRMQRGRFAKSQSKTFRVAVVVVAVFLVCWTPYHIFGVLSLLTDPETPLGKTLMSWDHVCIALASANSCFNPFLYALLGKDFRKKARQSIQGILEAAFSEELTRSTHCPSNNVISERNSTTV", "settings": "C3AR1, Agonist", "description": "as §1"}},
  "data": [
    {"compound": "CNC(C)C(=O)c1ccc2c(c1)OCO2", "note": "(stereo not drawn) [methylone, 3,4-methylenedioxy-N-methylcathinone]", "values": [
      {"measurement": "activity at 10 µM", "setting": "[1]; CXCR6, Agonist mode, 10 uM", "value": 0.3, "unit": "%"},
      {"measurement": "activity at 1 µM", "setting": "[1]; CXCR6, Agonist, 1 uM", "value": 0.3, "unit": "%"},
      {"measurement": "activity at 10 µM", "setting": "[2]; OPRD1, Agonist mode, 10 uM", "value": -1.5, "unit": "%"},
      {"measurement": "activity at 1 µM", "setting": "[2]; OPRD1, Agonist, 1 uM", "value": -2, "unit": "%"},
      {"measurement": "activity at 10 µM", "setting": "[3]; EDG1, Agonist mode, 10 uM", "value": 0.4, "unit": "%"},
      {"measurement": "activity at 1 µM", "setting": "[3]; EDG1, Agonist, 1 uM", "value": 0.1, "unit": "%"},
      {"measurement": "activity at 10 µM", "setting": "[4]; Agonist mode, 10 uM", "value": -11.7, "unit": "%"},
      {"measurement": "activity at 1 µM", "setting": "[4]; Agonist, 1 uM", "value": -12.3, "unit": "%"},
      {"measurement": "activity at 10 µM", "setting": "[5]; CNR1, Agonist mode, 10 uM", "value": -2.7, "unit": "%"},
      {"measurement": "activity at 1 µM", "setting": "[5]; CNR1, Agonist, 1 uM", "value": -0.4, "unit": "%"},
      {"measurement": "activity at 1 µM", "setting": "[6]", "value": -3.6, "unit": "%"},
      {"measurement": "activity at 10 µM", "setting": "[7]; HRH3, Agonist mode, 10 uM", "value": -3.7, "unit": "%"},
      {"measurement": "activity at 1 µM", "setting": "[7]; HRH3, Agonist, 1 uM", "value": -3.4, "unit": "%"},
      {"measurement": "activity at 1 µM", "setting": "[8]; 1 uM", "value": -5.8, "unit": "%"},
      {"measurement": "activity at 10 µM", "setting": "[8]; 10 uM", "value": -6.2, "unit": "%"},
      {"measurement": "activity at 10 µM", "setting": "[9]; Agonist mode, 10 uM", "value": 1.4, "unit": "%"},
      {"measurement": "activity at 1 µM", "setting": "[9]; Agonist, 1 uM", "value": 0.3, "unit": "%"},
      {"measurement": "activity at 1 µM", "setting": "[10]; 1 uM", "value": 4.5, "unit": "%"},
      {"measurement": "activity at 10 µM", "setting": "[10]; 10 uM", "value": -4.6, "unit": "%"},
      {"measurement": "activity at 10 µM", "setting": "[11]; Agonist mode, 10 uM", "value": 0.2, "unit": "%"},
      {"measurement": "activity at 1 µM", "setting": "[11]; Agonist, 1 uM", "value": -3.5, "unit": "%"},
      {"measurement": "activity at 10 µM", "setting": "[12]; PTHR2, Agonist mode, 10 uM", "value": -0.5, "unit": "%"},
      {"measurement": "activity at 1 µM", "setting": "[12]; PTHR2, Agonist, 1 uM", "value": -0.6, "unit": "%"},
      {"measurement": "activity at 10 µM", "setting": "[13]; EDG7, Agonist mode, 10 uM", "value": 1.1, "unit": "%"},
      {"measurement": "activity at 1 µM", "setting": "[13]; EDG7, Agonist, 1 uM", "value": 3, "unit": "%"},
      {"measurement": "activity at 10 µM", "setting": "[14]; F2RL1, Agonist mode, 10 uM", "value": 3.8, "unit": "%"},
      {"measurement": "activity at 1 µM", "setting": "[14]; F2RL1, Agonist, 1 uM", "value": -0.6, "unit": "%"},
      {"measurement": "activity at 10 µM", "setting": "[15]; Agonist mode, 10 uM", "value": -0.1, "unit": "%"},
      {"measurement": "activity at 1 µM", "setting": "[15]; Agonist, 1 uM", "value": -0.3, "unit": "%"},
      {"measurement": "activity at 10 µM", "setting": "[16]; Agonist mode, 10 uM", "value": -4.9, "unit": "%"},
      {"measurement": "activity at 1 µM", "setting": "[16]; Agonist, 1 uM", "value": -2.2, "unit": "%"},
      {"measurement": "activity at 1 µM", "setting": "[17]; 1 uM", "value": -0.1, "unit": "%"},
      {"measurement": "activity at 10 µM", "setting": "[17]; 10 uM", "value": 0, "unit": "%"}
    ]}
  ]
}
